{"source": "patent EP1296995B1", "about": "“3'-PRODRUGS OF 2'-DEOXY-BETA-L-NUCLEOSIDES” (priority 2000, dated 2001)", "key": {"[1]": {"experiment": "in vitro", "details": "human, bone marrow cfu-gm"}, "[2]": {"experiment": "in vitro", "details": "human, hepg2 cells", "from_the_text": "(§1) These studies included analysis of lactic acid production, mtDNA content and determination of changes in morphology (e.g., loss of cristae, matrix dissolution and swelling, and lipid droplet formation) of mitochondrial ultrastructure."}, "[3]": {"test_system": "HepG2 cells", "experiment": "in vitro", "from_the_text": "as §1"}, "[4]": {"experiment": "in vitro", "details": "human, bone marrow bfu-e"}}, "data": [{"smiles": "Cc1cn([C@H]2C[C@H](N=[N+]=[N-])[C@@H](CO)O2)c(=O)[nH]c1=O", "note": "[ZDV, zidovudine]", "values": [{"measurement": "IC50", "setting": "[1]", "result": 1800, "unit": "nM"}, {"measurement": "activity", "setting": "[2]", "result": "239 ± 34", "unit": "%"}, {"measurement": "activity at 336 h", "setting": "[2]", "result": 119, "unit": "%"}, {"measurement": "Lipid Droplet Formation", "setting": "[3]", "result": "negative"}, {"measurement": "increase of lactic acid production compared to vehicle control", "setting": "[3]; human", "result": 100, "unit": "%"}, {"measurement": "IC50", "setting": "[4]", "result": 700, "unit": "nM"}]}]}
